Laboratory results: patent publication US9364454B2, “Anti-inflammatory actions of neuroprotectin D1/protectin D1 and its natural stereoisomers” (The Brigham and Women's Hospital, Inc., priority 2005, dated 2016)
Entries after “also recorded” stand apart in the source; their conditions may differ.

Experiments:
FVB male mice = assay: Acute inflammatory exudates: zymosan A murine peritonitis (leukocyte infiltration); assay type: in vivo, mouse; settings: for anti-inflammatory potency in vivo, PMN infiltration (in words): dose range tested (FIG. 6), lavage at 2 h; for activity on PMN infiltration at higher doses / dose dependence (in words): higher doses (10 ng, 100 ng); for kind of joint anti-inflammatory action of PD1 and RvE1: 10 ng/mouse i.p. of either or both, 2 h
Experimental: Peritonitis was carried out using 6-8 week-old FVB male mice (Charles River Laboratories) fed laboratory Rodent Diet 5001 (Purina Mills) that were anesthetized with isoflurane, and compounds to be tested were administered intraperitoneally. […] Each compound tested or vehicle alone was suspended in 1 μl ethanol and mixed in sterile saline (120 μl). After intraperitoneal injections (either 2 or 4 hours of acute inflammation), the mice were sacrificed in accordance with the Harvard Medical Area Standing Committee on Animals protocol no. 02570, and peritoneal lavages were collected rapidly and placed in an ice bath (4° C.) for enumeration, differential counts, and further analysis.

[1] = system: human PMN transmigration across endothelial cells; assay: Human PMN transmigration across HMEC monolayers, LTB4-induced; assay type: cell-based; settings: compound 15 min, LTB4 10^-8 M 90 min
Experimental: PMN were freshly isolated from whole blood obtained by venipuncture from healthy human donors (who denied taking medication for 2 weeks prior to donation; BWH protocol no. 88-02642) and anti-coagulated with acid citrate dextrose as in (40, 41). Briefly, plasma and mononuclear cells were removed by aspiration from the buffy coat after centrifugation (400 g; 20 min) at room temperature. Histopaque (density 1.077) was from Sigma-Aldrich (St. Louis, Mo.). RBCs were sedimented using 2% gelatin, and residual RBCs were removed by lysis in ice-cold NH4Cl buffer. The cell suspensions were >90% PMN as determined by light microscopic evaluation. PMN were suspended at 5×10^7 cells/ml in HBSS with 10 mM Hepes, pH 7.4, and without Ca^2+ or Mg^2+ (Sigma-Aldrich, St. Louis, Mo.). PMN were used within 2 hours of their isolation.
Human Microvascular Endothelial Cells (HMEC; a gift from Francisco Candal of the Centers for Disease Control, Atlanta, Ga.) were obtained as primary cultures. For preparation of experimental HMEC monolayers, confluent endothelial cells were grown on 0.33 cm^2 ring-supported polycarbonate filters (5 μm pore size; Costar Corp., Cambridge, Mass.) in the apical-to-basolateral direction. Cells were grown for ˜1 week prior to transmigration experiments.
Transmigration was conducted essentially as in ref. (41). PMN were incubated with either vehicle-containing buffer or compound for 15 minutes at 37° C. A chemotactic gradient was established by placing HMEC inserts that had been washed in HBSS with Ca^2+ and Mg^2+ (denoted +/+) in 10^−8M LTB4 in the lower chambers. Neutrophils (10^6 cells) were added to 50 μl HBSS +/+ in the upper chambers and cells were incubated at 37° C. for 90 min. Transmigrated PMN were quantified by assessing the PMN azurophilic marker myeloperoxidase and a calibration curve. PMN were lysed by the addition of Triton X-100 to a final concentration of 0.5%. The samples were acidified with citrate buffer (final concentration 100 mM, pH 4.2). An aliquot of each sample was added to an equal volume of ABTS solution (1 mM ABTS [2′-azino-bis(3-ethylbenzo-thiazoline-6-sulfonic acid)], 0.03% H2O2, 100 mM sodium citrate buffer, pH 4.2) in a 96-well plate. The resulting color was monitored using a plate reader at 405 nm and a calibration curve for cell number.

Compound	rank order of potency (FVB male mice; 0.1 ng dose)	activity on PMN infiltration (in words) (FVB male mice; 1 ng/mouse dose)	rank order of potency (FVB male mice; 1-10 ng dose)	anti-inflammatory potency in vivo, PMN infiltration (in words) (FVB male mice)	also measured
CC/C=C\C[C@H](O)C#C/C=C/C=C/[C@H](O)C/C=C\C/C=C\CCC(=O)O [15,16-dehydro-PD1]					PMN infiltration (in words) (FVB male mice; 10 ng/mouse, 4 h after injection (FIG. 9)): retained activity in vivo; also recorded: slightly less potent than the native PD1; also recorded: reduced PMN infiltration; also recorded: Statistically different from *zymosan A-injected mice; also recorded: less potent; recruitment of monocytes and lymphocytes to exudates (in words) (FVB male mice; peritonitis, differential counts): increased the non-phlogistic recruitment of monocytes and lymphocytes
CC/C=C\C[C@H](O)/C=C/C=C\C=C\[C@@H](O)C/C=C\C/C=C\CCC(=O)O [Compound I, 10S,17S-dihydroxy-docosa-4Z,7Z,11E,13Z,15E,19Z-hexaenoic acid]	Compound VI>>PD1>10S,17S-DT (the double dioxygenation product)>the Δ15-trans-PD1>>Compound V	did display some activity	PD1≈PD1 methyl ester>>Δ15-trans PD1>10S,17S-diHDHA (isomer I)	nor did it carry potent actions; also recorded: substantially less potent; also recorded: PD1 (Compound II)>>10S,17S-diHDHA (Compound I); also recorded: possesses some anti-inflammatory activity in vivo, albeit proved to be much less potent than natural or synthetic PD1	activity on PMN infiltration (in words) (FVB male mice; 0.1 ng dose, compared to PD1): not active; activity on PMN infiltration at higher doses / dose dependence (in words) (FVB male mice): blocked PMN infiltration, but it was less potent than PD1; also recorded: did not increase with higher doses in a statistically significant fashion
CC/C=C\C[C@H](O)/C=C/C=C/C=C/[C@H](O)C/C=C\C/C=C\CCC(=O)O [Compound III, 10R,17S-dihydroxy-docosa-4Z,7Z,11E,13E,15E,19Z-hexaenoic-acid]	Compound VI>>PD1>10S,17S-DT (the double dioxygenation product)>the Δ15-trans-PD1>>Compound V	substantially less potent	PD1≈PD1 methyl ester>>Δ15-trans PD1>10S,17S-diHDHA (isomer I)	possesses little bioactivity in vitro or in vivo	effect on LTB4-induced PMN transmigration (in words) [1]: possesses little bioactivity in vitro or in vivo; effect on LTB4-induced PMN transmigration (in words) ([1]; listed as 415-trans-PD1): essentially inactive; effect on LTB4-induced PMN transmigration (in words) ([1]; listed as Δ15-trans isomer of PD1): did not block PMN transmigration in vitro
CC/C=C\C[C@H](O)/C=C/C=C\C=C\[C@H](O)C/C=C\C/C=C\CCC(=O)O [Compound IV, 10R,17S-dihydroxy-docosa-4Z,7Z,11E,13Z,15E,19Z-hexaenoic-acid]		essentially equipotent			activity on PMN infiltration at higher doses / dose dependence (in words) (FVB male mice): did not increase potency in a dose-dependent fashion
CC/C=C\C[C@@H](O)\C=C/C=C/C=C/[C@@H](O)C/C=C\C/C=C\CCC(=O)O [Compound V, 10S,17R,-dihydroxy-docosa-4Z,7Z,11E,13E,15Z,19Z-hexaenoic-acid]	Compound VI>>PD1>10S,17S-DT (the double dioxygenation product)>the Δ15-trans-PD1>>Compound V			essentially without activity	anti-inflammatory potency in vivo, PMN infiltration (in words) (FVB male mice; listed as compound V): essentially inactive in vivo
CC/C=C\C[C@H](O)\C=C/C=C/C=C/[C@@H](O)C/C=C\C/C=C\CCC(=O)O [Compound VI, 10S,17S-dihydroxy-docosa-4Z,7Z,11E,13E,15Z,19Z-hexaenoic-acid]	Compound VI>>PD1>10S,17S-DT (the double dioxygenation product)>the Δ15-trans-PD1>>Compound V			the most potent of these isomers in vivo	anti-inflammatory potency in vivo, PMN infiltration (in words) (FVB male mice; listed as compound VI): carries bioactivity; anti-inflammatory potency in vivo, PMN infiltration (in words) (FVB male mice; listed as isomer VI): ≧PD1
CC/C=C\C[C@H](O)\C=C/C=C/C=C/[C@H](O)C/C=C\C/C=C\CCC(=O)OC [PD1 methyl ester]			PD1≈PD1 methyl ester>>Δ15-trans PD1>10S,17S-diHDHA (isomer I)		
CC[C@@H](O)/C=C/C=C\C[C@@H](O)/C=C/C=C/C=C\[C@@H](O)CCCC(=O)O [RvE1, 5S,12R,18R-trihydroxy-6Z,8E,10E,14Z,16E-eicosapentaenoic acid, reference compound]					kind of joint anti-inflammatory action of PD1 and RvE1 (FVB male mice): additive rather than synergistic; kind of joint anti-inflammatory action of PD1 and RvE1 (FVB male mice; listed as resolvin E1): additive; PMN infiltration, PD1 and RvE1 administered together (in words) (FVB male mice; 10 ng/mouse i.p., exudates at 2 h): reduced the infiltration of PMN
CCC=CCC(O)C=CC=CC=CC(O)CC=CCC=CCCC(=O)OC (centres unmarked) [methyl ester of Compound VI]				potent regulator of PMN infiltration	
